Measurements published in patent US5710123A, “Peptide inhibitors of selectin binding” (Centocor, Inc., priority 1995, dated 1998).
Where a SMILES comes first, the peptide text is derived from it. Bridges are numbered along the chain shown (N, C = ends). Where no end group is shown, it is not given here.

Biological target: T1, P-selectin (Homo sapiens, UniProt P16109)
T1 construct: from tissue; host or cells: outdated human platelet packs from a blood bank
T1 sequence (P16109 42-830): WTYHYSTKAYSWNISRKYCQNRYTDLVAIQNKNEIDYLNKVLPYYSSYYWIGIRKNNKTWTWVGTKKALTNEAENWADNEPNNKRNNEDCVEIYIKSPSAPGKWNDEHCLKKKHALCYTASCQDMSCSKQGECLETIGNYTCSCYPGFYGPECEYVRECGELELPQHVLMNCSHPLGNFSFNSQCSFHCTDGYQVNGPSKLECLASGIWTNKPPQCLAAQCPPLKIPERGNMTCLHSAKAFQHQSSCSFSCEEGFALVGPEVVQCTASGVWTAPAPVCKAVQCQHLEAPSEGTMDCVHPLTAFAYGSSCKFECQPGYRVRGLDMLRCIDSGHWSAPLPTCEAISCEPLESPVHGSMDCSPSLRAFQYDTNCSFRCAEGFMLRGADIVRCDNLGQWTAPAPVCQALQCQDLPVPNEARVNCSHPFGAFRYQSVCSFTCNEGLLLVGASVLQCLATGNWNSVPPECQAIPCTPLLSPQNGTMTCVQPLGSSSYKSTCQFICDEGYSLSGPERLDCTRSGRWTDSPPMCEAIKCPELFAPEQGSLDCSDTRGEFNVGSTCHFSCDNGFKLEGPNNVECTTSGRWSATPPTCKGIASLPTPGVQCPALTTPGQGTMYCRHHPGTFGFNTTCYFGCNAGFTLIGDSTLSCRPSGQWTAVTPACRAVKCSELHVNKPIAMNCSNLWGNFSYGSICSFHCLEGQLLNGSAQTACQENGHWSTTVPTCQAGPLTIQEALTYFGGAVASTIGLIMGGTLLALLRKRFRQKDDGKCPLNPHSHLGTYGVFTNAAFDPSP
Test: Inhibition of binding of human neutrophils to P-selectin (neutrophil adhesion to purified immobilized P-selectin, myeloperoxidase readout)
Type: cell-based
Details: P-selectin purified from human platelets, plated at 5 micrograms/mL, peptides tested 1.0 mM to 0.001 mM
From the text: Peptides can be screened for their ability to inhibit adhesion to cells, for example, neutrophil adhesion to purified P-selectin immobilized on plastic wells, using the assay described by Geng, et al., Nature 343, 757-760 1990). Human neutrophils are isolated from heparinized […] blood by density gradient centrifugation on Mono-Poly resolving media, Flow Laboratories. Neutrophil suspensions are greater than 98% pure and greater than 95% viable by trypan blue exclusion. For adhesion assays, neutrophils are suspended at a concentration of 2×10^6 cells/mL in Hanks' balanced salt solution containing 1.26 mM Ca^2+ and 0.81 mM Mg^2+ (HBSS, Gibco) with […] human serum albumin (HBSS/HSA). Adhesion assays are conducted in triplicate in 96-well microtiter plates, Corning, incubated at 4° C. overnight with 50 microliters of various protein solutions. P-selectin is isolated from human platelet lysates by immunoaffinity chromatography on antibody S12-Sepharose™ and ion-exchange chromatography on a Mono-Q™ column (FLPC, Pharmacia Fine Chemicals), as follows. Outdated human platelet packs (100 units) obtained from a blood bank and stored at 4° C. are pooled, adjusted to 5 mM EDTA at pH 7.5, centrifuged at 4,000 rpm for 30 minutes in 1 liter bottles, then washed three times with 1 liter of 0.1M NaCl, 20 mM Tris pH 7.5 (TBS), 5 mM EDTA, 5 mM benzamidine. The pellets are then resuspended in a minimum amount of wash buffer and made 1 mM in DIFP, then frozen in 50 mL screwtop tubes at -80° C. The frozen platelets are thawed and resuspended in 50 mL TBS, 5 mM benzamidine, 5 mM EDTA pH 7.5, […]. The suspension is frozen and thawed two times in a dry ice-acetone bath using a 600 mL lyophilizing flask, then homogenized in a glass/teflon mortar and pestle and made 1 mM in DIFP. The NaCl concentration is adjusted to 0.5M with a stock solution of 4M NaCl. After stirring the suspension at 4° C., it is centrifuged in polycarbonate tubes at 33,000 rpm for 60 minutes at 4° C. The supernatant (0.5M NaCl wash) is removed and saved; this supernatant contains the soluble form of P-selectin. Care is taken not to remove the top part of the pellet with the supernatant. The pellets are then homogenized in extraction buffer (TBS, 5 mM benzamidine, 5 mM EDTA, pH 7.5, 100 μM leupeptin, 2% Triton X-100). After centrifugation at 19,500 rpm for 25 minutes at 4° C., the supernatant is removed. The extraction procedure is repeated with the pellet and the supernatant is combined with the first supernatant. The combined extracts, which contain the membrane form of P-selectin, are adjusted to 0.5M NaCl. The soluble fraction (0.5M NaCl wash) and the membrane extract (also adjusted to 0.5M NaCl) are absorbed with separate pools of the monoclonal antibody S12 (directed to P-selectin) previously coupled to Affigel (Biorad) at 5 mg/mL for 2 hours at 4° C. After letting the resins settle, the supernatants are removed. The S12 Affigel containing bound GMP-140 is then loaded into a column and washed overnight at 4° C. with 400 mL of 0.5M NaCl, 20 mM Tris pH 7.5, 0.01% Lubrol PX. Bound P-selectin is eluted from the S12 Affigel with 100 mL of 80% ethylene glycol, 1 mM MES pH 6.0, 0.01% Lubrol PX. Peak fractions with absorbance at 280 nm are pooled. Eluates are dialyzed against TBS with 0.05% Lubrol, then applied to a Mono Q column (FPLC from Pharmacia). The concentrated protein is step eluted with 2M NaCl, 20 mM Tris pH 7.5 (plus 0.05% Lubrol PX for the membrane fraction). Peak fractions are dialyzed into TBS pH 7.5 (plus 0.05% Lubrol PX for the membrane fraction). P-selectin is plated at 5 micrograms/mL and the control proteins: human serum albumin (Alb), platelet glycoprotein IIb/IIIa (IIb), von Willsbrand factor (vWF), fibrinogen (FIB), thrombomodulin (TM), gelatin (GEL) or human serum (HS), are added at 50 micrograms/mL. […]

Molecule	IC50 [µM]
CC(C)C[C@@H]1NC(=O)[C@H](C)NC(=O)[C@H](Cc2c[nH]cn2)NC(=O)[C@H](CCCCN)NC(=O)[C@H](CCCCN)NC(=O)[C@H](CCCCN)NC(=O)[C@H](CC(C)C)NC(=O)[C@@H](N)CSSC[C@@H](C(=O)N[C@@H](Cc2ccc(O)cc2)C(N)=O)NC1=O [SEQ ID NO: 4, Cyclo-(cystinyl-leucyl-lysyl-lysyl-lysyl-histidyl-alanyl-leucyl-cystinyl)-tyrosine-amide] (H-CLKKKHALCY-NH2; disulfide 1-9)	626
SKSKLALCY-NH2 [SEQ ID NO: 60, SKSKLALCY--NH2]	858
SKKKLALCF-NH2 [SEQ ID NO: 29, SKKKLALCF--NH2]	65
SKKKLAPCY-NH2 [SEQ ID NO: 42, SKKKLAPCY--NH2]	897
Ac-SKRKLALCY-NH2 [SEQ ID NO: 53, Ac-SKRKLALCY--NH2]	12
Ac-HKKKLALCY-NH2 [SEQ ID NO: 9, Ac-HKKKLALCY--NH2]	11
SKRRLALCY-NH2 [SEQ ID NO: 58, SKRRLALCY--NH2]	8
SKKQLALCY-NH2 [SEQ ID NO: 48, SKKQLALCY--NH2]	195
PKKKLALCY-NH2 [SEQ ID NO: 16, PKKKLALCY--NH2]	103
SKKKLHLCY-NH2 [SEQ ID NO: 44, SKKKLHLCY--NH2]	207
SKKKLILCY-NH2 [SEQ ID NO: 45, SKKKLILCY--NH2]	95
FKKKLALCY-NH2 [SEQ ID NO: 8, FKKKLALCY--NH2]	20
CC(C)C[C@H](NC(=O)[C@H](C)NC(=O)[C@H](C)NC(=O)[C@H](CCCCN)NC(=O)[C@H](CC(C)C)NC(=O)[C@H](CCCCN)NC(=O)[C@H](Cc1c[nH]cn1)NC(=O)[C@@H](N)CS)C(=O)N[C@@H](CS)C(=O)N[C@@H](Cc1ccc(O)cc1)C(N)=O [SEQ ID NO: 3, Cystinyl-histidyl-lysyl-leucyl-lysyl-alanyl-alanyl-leucyl-cystinyl-tyrosine-amide] (H-CHKLKAALCY-NH2)	282
Ac-SKKKLALCY-NH2 [SEQ ID NO: 49, Ac-SKKKLALCY--NH2]	9
SKKKLALLY-NH2 [SEQ ID NO: 38, SKKKLALLY--NH2]	131
Ac-SKKKAALCY-NH2 [SEQ ID NO: 23, Ac-SKKKAALCY--NH2]	192
SKKKLALIY-NH2 [SEQ ID NO: 35, SKKKLALIY--NH2]	43
Ac-SKKKLALVY-NH2 [SEQ ID NO: 39, Ac-SKKKLALVY--NH2]	164
SKKKLFLCY-NH2 [SEQ ID NO: 43, SKKKLFLCY--NH2]	95
SKLKLALCY-NH2 [SEQ ID NO: 52, SKLKLALCY--NH2]	9
